Test results from ChEMBL document CHEMBL5120883, “The Dawn of Allosteric BCR-ABL1 Drugs: From a Phenotypic Screening Hit to an Approved Drug” (2022).

test system: BaF3; experiment: Antiproliferative activity against mouse BaF3 cells expressing Bcr-Abl assessed as cell growth inhibition; type: functional

Compound	GI50 [nM]
FC(F)(F)Oc1ccc(Nc2cc(NCCN3CCOCC3)ncn2)cc1	720
FC(F)(F)Oc1ccc(Nc2cc(-c3ccc4[nH]ccc4c3)ncn2)cc1	290
FC(F)(F)Oc1cccc(Nc2cc(NCCN3CCOCC3)ncn2)c1	720
FC(F)(F)c1ccc(Nc2cc(NCCN3CCOCC3)ncn2)cc1	920

Stronger by GI50, values ahead:

GI50 [nM]	Compound
120	NS(=O)(=O)c1ccc(-c2cc(Nc3ccc(OC(F)(F)F)cc3)ncn2)cc1
90	FC(F)(F)Oc1ccc(Nc2cc(-c3cn[nH]c3)ncn2)cc1
